This is an account of results in patent publication US12642779B1, “Albuterol aerosol suspension formulation for oral inhalation with high amount of green propellant hydrofluoroolefin (HFO) and free of co-solvent” (Amphastar Pharmaceuticals, Inc., priority 2025, dated 2026).

For data set [1] the following is noted: cited from earlier work.
Data set [2] can be described thus: Surfactant solubility in HFO-1234ze (E) propellant. The class given is physicochemical.

Like-named read-outs stand apart in the source and are kept apart here.

Turning to `FCC(F)(F)F` [HFA-134a, 1,1,1,2-Tetrafluoroethane], in data set [1], the “Liquid Density at 20° C.” value is recorded as 1.21 g/mL, the “Vapor Pressure at 20° C.” value is listed as 83.0 psi and the “Viscosity at 20° C.” value is 0.20 cP. Also, the Water solubility in data set [1] (at 25° C.) was 1100 at 25 °C ppm.

For the compound `FC(C(F)(F)F)C(F)(F)F` [HFA-227, 1,1,1,2,3,3,3-Heptafluoropropane], in data set [1], the “Liquid Density at 20° C.” value is 1.41 g/mL, the “Vapor Pressure at 20° C.” value is 56.6 psi and the “Viscosity at 20° C.” value is given as 0.26 cP. The Water solubility in data set [1] (at 25° C.) is 610 at 25 °C ppm.

As to `F/C=C/C(F)(F)F` [HFO-1234ze(E), Trans-1,3,3,3-Tetrafluoropropene], in data set [1], the “Liquid Density at 20° C.” value is 1.19 g/mL, the “Vapor Pressure at 20° C.” value is reported as 46.4 psi and the “Viscosity at 20° C.” value is 0.19 cP. Moreover, the Water solubility in data set [1] (at 20° C.) is 225 at 20 °C ppm.

With polyethylene glycol 1000 [PEG 1000], the “Solubility of surfactant in HFO-1234ze (E)” value (“Solubility of surfactant” below) in data set [2] was “exhibited certain solubility in HFO-1234ze (E) and showed homogenous phase”.

On to “polyoxyethylene (20) sorbitan monolaurate [polysorbate 20]”, for which the “Solubility of surfactant” value in data set [2] (in HFO-1234ze (E) propellant) was “exhibited certain solubility in HFO-1234ze (E) and showed homogenous phase”.

For the compound “polyoxyethylene (20) sorbitan monooleate [polysorbate 80]”, the “Solubility of surfactant” value in data set [2] was “exhibited certain solubility in HFO-1234ze (E) and showed homogenous phase”.

Regarding polyvinylpyrrolidone K25 [PVP K25], the “Solubility of surfactant” value in data set [2] was “exhibited certain solubility in HFO-1234ze (E) and showed homogenous phase”.

For the compound sorbitan trioleate [span 85], the “Solubility of surfactant” value in data set [2] is “exhibited certain solubility in HFO-1234ze (E) and showed homogenous phase”.
